Source: PubChem BioAssay AID1963827 (Molecular Pharmacology Branch, DTP, NCI, 2024)
Several values for one entry are separate records, joined by “and”; a condition that tells them apart may be missing. Identical values can stand only once.

Test system: 994946-033-R-J1-PDC complex spheroid viability
Assay: Anticancer human tumor 994946-033-R-J1-PDC patient-derived melanoma cell line growth inhibition [POLQ]
Conditions: for viability, T/C: stronger effect = lower value; active = viability on the fitted dose curve at most 10% of control; inactive = the rest
Protocol: Multicellular complex tumor spheroid response to Polymerase (POL) inhibitors (novobiocin, ART-558, RP6685) in combination with a variety of drugs and investigational agents in selected tumor cell lines
The POL inhibitors (novobiocin, ART-558, and RP6685) were evaluated both individually and in combination with standard of care and investigational anticancer small molecules within a complex spheroid model of solid tumors. . Complex spheroids include a stromal component modeled by human endothelial cells (HUVEC) and fibroblasts modeled by human mesenchymal stem cells (MSCs). The concentration ranges selected for each drug and investigational agent were based upon clinically achievable concentrations if the clinical Cmax of the agent was known.
Compounds. The drugs and investigational agents: novobiocin (NSC847541), ART-558 (NSC835418), RP-6685 (NSC848927), peposertib (NSC802822), ceralasertib (NSC780249), elimusertib (NSC800525), camonsertib (NSC841442), AZD-1390 (NSC803789), olaparib (NSC753686), talazoparib (NSC767125), rucaparib (NSC756644), sotorasib (NSC818433), MRTX-1133 (NSC836407), SN-38 (NSC673596), topotecan (NSC609699), epotoside (NSC141540), doxorubicin (NSC123127), gemcitabine (NSC613327), 5-fluorouracil (NSC19893), paclitaxel (NSC125973), vemurafenib (NSC761431), MSA-2 (NSC828583), SN-011 (NSC837082), adavosertib (NSC754352), prexasertib (NSC758257), carboplatin (NSC241240) and oxaliplatin (NSC266046), were obtained from the National Cancer Institute (NCI) Developmental Therapeutics Program Chemical Repository (21). The FDA-approved anticancer drug set is available from the Developmental Therapeutics Program at https://dtp.cancer.gov/organization/dscb/obtaining/. […] The stock solutions were prepared in dimethyl sulfoxide (DMSO, Sigma-Aldrich, St. Louis, MO, cat. D2650), except for the platinum compounds which were prepared in saline (Quality Biological, Gaithersburg, MD, cat. 114-055-101), at 800-fold the tested concentration and stored at -70 degrees C prior to their use. All drugs and investigational agents were tested over a range starting from a high concentration at or near the clinical Cmax and decreasing in half-log increments. If the clinical Cmax for an agent had not been determined, the highest concentration tested was 10 microM, except for SN-38, which was tested at a high concentration of 1 microM.
Cell Culture. All cells were maintained in an incubator at 37 degrees C and 5% CO2 with 95% humidity. The PDC lines were cultured according to standard operating procedures established by the NCI PDMR (https://pdmr.cancer.gov). Table 3 of the manuscript, lists the cell lines along with the number of the three cell types plated to form the mct-spheroids and media for tumor cell growth. After thawing, all PDC lines, except 997537-175-T-J1-PDC and 415267-285-R-J2-PDC, were cultured in Matrigel-coated flasks prepared with a working solution of 1X Ham's F-12 nutrient mix, without supplementation (Thermo Fisher Scientific, cat. 11765054), 100 U/mL penicillin-streptomycin (Thermo Fisher Scientific, cat. 15140122), and 2.5% Matrigel (Corning Inc., Corning, NY, cat. 354248) for the first three passages. The two PDC lines 997537-175-T-J1-PDC and 415267-285-R-J2-PDC were cultured on uncoated flasks. The 857933-349-R-J2-PDC line was cultured in 6C/Colon 1B media containing advanced DMEM/F-12 (Thermo Fisher Scientific, cat. 12634028), 10 mM HEPES (Thermo Fisher Scientific, cat. 15630080), 1X GlutaMAX supplement (Thermo Fisher Scientific, cat. 35050061), 0.1 mg/mL primocin (InvivoGen, San Diego, CA, cat. ant-pm-2), 10% defined fetal bovine serum, heat inactivated (HyClone Laboratories Inc., Logan, UT, cat. SH30070.03HI), 50% L-WRN conditioned media (ATCC, cat. CRL-3276), 1.25 mM N-Acetyl-L-cysteine (Sigma-Aldrich, cat. A9165), 10 mM nicotinamide (Sigma-Aldrich, cat. N0636), 1X B-27 supplement (Thermo Fisher Scientific, cat. 17504044), 1X N-2 supplement (Thermo Fisher Scientific, cat. […]
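Note: spheroids exposed to drugs for 7 days.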
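Throughout, for viability, T/C: 100% = DMSO vehicle treated spheroids.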

CCc1c2c(nc3ccc(O)cc13)-c1cc3c(c(=O)n1C2)COC(=O)[C@]3(O)CC + COC1C(OC(N)=O)C(O)C(Oc2ccc3c(O)c(NC(=O)c4ccc(O)c(CC=C(C)C)c4)c(=O)oc3c2C)OC1(C)C
inactive: viability, T/C (second compound 0.0316 µM, first compound 0.00316 µM) 21.2% | viability, T/C (second compound 0.0316 µM, first compound 0.01 µM) 10.5% | viability, T/C (second compound 0.1 µM, first compound 0.00316 µM) 14.8% | viability, T/C (second compound 0.316 µM, first compound 0.00316 µM) 20.7% | viability, T/C (second compound 1 µM, first compound 0.00316 µM) 21.2% | viability, T/C (second compound 3.16 µM, first compound 0.00316 µM) 17.8% | viability, T/C (second compound 10 µM, first compound 0.00316 µM) 16.8%
active: viability, T/C (second compound 0.0316 µM, first compound 0.0316 µM) 5.04% | viability, T/C (second compound 0.0316 µM, first compound 0.1 µM) 6.46% | viability, T/C (second compound 0.0316 µM, first compound 0.316 µM) 4.53% | viability, T/C (second compound 0.0316 µM, first compound 1 µM) 1.07% | viability, T/C (second compound 0.1 µM, first compound 0.01 µM) 7.14% | viability, T/C (second compound 0.1 µM, first compound 0.0316 µM) 4.91% | viability, T/C (second compound 0.1 µM, first compound 0.1 µM) 4.35% | viability, T/C (second compound 0.1 µM, first compound 0.316 µM) 3.22% | viability, T/C (second compound 0.1 µM, first compound 1 µM) 0.99% | viability, T/C (second compound 0.316 µM, first compound 0.01 µM) 8.29% | viability, T/C (second compound 0.316 µM, first compound 0.0316 µM) 4.94% | viability, T/C (second compound 0.316 µM, first compound 0.1 µM) 5% | viability, T/C (second compound 0.316 µM, first compound 0.316 µM) 3.67% | viability, T/C (second compound 0.316 µM, first compound 1 µM) 0.92% | viability, T/C (second compound 1 µM, first compound 0.01 µM) 8.21% | viability, T/C (second compound 1 µM, first compound 0.0316 µM) 5.36% | viability, T/C (second compound 1 µM, first compound 0.1 µM) 4.87% | viability, T/C (second compound 1 µM, first compound 0.316 µM) 3% | viability, T/C (second compound 1 µM, first compound 1 µM) 0.93% | viability, T/C (second compound 3.16 µM, first compound 0.01 µM) 9.17% | viability, T/C (second compound 3.16 µM, first compound 0.0316 µM) 4.15% | viability, T/C (second compound 3.16 µM, first compound 0.1 µM) 4.13% | viability, T/C (second compound 3.16 µM, first compound 0.316 µM) 3.2% | viability, T/C (second compound 3.16 µM, first compound 1 µM) 0.9% | viability, T/C (second compound 10 µM, first compound 0.01 µM) 6.62% | viability, T/C (second compound 10 µM, first compound 0.0316 µM) 5.93% | viability, T/C (second compound 10 µM, first compound 0.1 µM) 4.77% | viability, T/C (second compound 10 µM, first compound 0.316 µM) 2.81% | viability, T/C (second compound 10 µM, first compound 1 µM) 1.02%
< 3.16 nM: IC50 (curve of first compound, second compound 0.0316 µM) | IC50 (curve of first compound, second compound 0.1 µM) | IC50 (curve of first compound, second compound 0.316 µM) | IC50 (curve of first compound, second compound 1 µM) | IC50 (curve of first compound, second compound 3.16 µM) | IC50 (curve of first compound, second compound 10 µM)

CCc1c2c(nc3ccc(O)cc13)-c1cc3c(c(=O)n1C2)COC(=O)[C@]3(O)CC
6.95% and 12.2% and 10.6%: viability, T/C (compound 0.01 µM)
active: viability, T/C (compound 0.0316 µM) 5.85% and 6.99% and 4.96% | viability, T/C (compound 0.1 µM) 3.9% and 5.58% and 5.13% | viability, T/C (compound 0.316 µM) 3.05% and 4.94% and 3.67% | viability, T/C (compound 1 µM) 1.76% and 2.96% and 1.2%
< 3.16 nM: IC50 (curve of compound)
inactive: viability, T/C (compound 0.00316 µM) 17% and 30.3% and 19.5%
